Experimental data taken from US8192962B2, “Processes for detecting toxic substances” (Daikin Industries, Ltd., priority 2001, dated 2012).

Test system: Detoxification protein genes
Experiment: DNA chip mRNA expression in yeast, detoxification protein genes (Table 8)
Assay type: cell-based, Saccharomyces cerevisiae S288C
Method in brief: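 First, S288C yeast grown in YPD at 25° C. are dosed in log phase with one toxicant (growth-inhibiting, not lethal) for 2 h. Next, total RNA is extracted and poly(A) mRNA isolated and reverse-transcribed with Cy3/Cy5-dUTP. Finally, whole-genome chip fluorescence is read relative to unexposed cells.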

Oc1cc(Cl)c(Cl)cc1Cl [(6), 2,4,5-trichlorophenol]
The level of expressed mRNA in the presence of chemical substance/The level of expressed mRNA in the absence of chemical substance (yeast gene YBL064C): 5.2 | The level of expressed mRNA in the presence of chemical substance/The level of expressed mRNA in the absence of chemical substance (yeast gene YBR008C): 1.0 | The level of expressed mRNA in the presence of chemical substance/The level of expressed mRNA in the absence of chemical substance (yeast gene YBR145W): 11.5 | The level of expressed mRNA in the presence of chemical substance/The level of expressed mRNA in the absence of chemical substance (yeast gene YBR244W): 1.0 | The level of expressed mRNA in the presence of chemical substance/The level of expressed mRNA in the absence of chemical substance (yeast gene YBR293W): 0.9 | The level of expressed mRNA in the presence of chemical substance/The level of expressed mRNA in the absence of chemical substance (yeast gene YCL035C): 5.1 | The level of expressed mRNA in the presence of chemical substance/The level of expressed mRNA in the absence of chemical substance (yeast gene YCR083W): 2.4 | The level of expressed mRNA in the presence of chemical substance/The level of expressed mRNA in the absence of chemical substance (yeast gene YDL100C): 2.1 | The level of expressed mRNA in the presence of chemical substance/The level of expressed mRNA in the absence of chemical substance (yeast gene YDL168W): 1.4 | The level of expressed mRNA in the presence of chemical substance/The level of expressed mRNA in the absence of chemical substance (yeast gene YDR256C): 0.5 | The level of expressed mRNA in the presence of chemical substance/The level of expressed mRNA in the absence of chemical substance (yeast gene YDR453C): 1.7 | The level of expressed mRNA in the presence of chemical substance/The level of expressed mRNA in the absence of chemical substance (yeast gene YDR513W): 2.1 | The level of expressed mRNA in the presence of chemical substance/The level of expressed mRNA in the absence of chemical substance (yeast gene YDR538W): 1.0 | The level of expressed mRNA in the presence of chemical substance/The level of expressed mRNA in the absence of chemical substance (yeast gene YEL027W): 1.1 | The level of expressed mRNA in the presence of chemical substance/The level of expressed mRNA in the absence of chemical substance (yeast gene YEL065W): 2.3 | The level of expressed mRNA in the presence of chemical substance/The level of expressed mRNA in the absence of chemical substance (yeast gene YER185W): 1.2 | The level of expressed mRNA in the presence of chemical substance/The level of expressed mRNA in the absence of chemical substance (yeast gene YFL050C): 0.9 | The level of expressed mRNA in the presence of chemical substance/The level of expressed mRNA in the absence of chemical substance (yeast gene YGL013C): 2.3 | The level of expressed mRNA in the presence of chemical substance/The level of expressed mRNA in the absence of chemical substance (yeast gene YGL254W): 0.7 | The level of expressed mRNA in the presence of chemical substance/The level of expressed mRNA in the absence of chemical substance (yeast gene YGR088W): 1.3 | The level of expressed mRNA in the presence of chemical substance/The level of expressed mRNA in the absence of chemical substance (yeast gene YGR138C): 0.8 | The level of expressed mRNA in the presence of chemical substance/The level of expressed mRNA in the absence of chemical substance (yeast gene YGR197C): 0.5 | The level of expressed mRNA in the presence of chemical substance/The level of expressed mRNA in the absence of chemical substance (yeast gene YGR209C): 1.9 | The level of expressed mRNA in the presence of chemical substance/The level of expressed mRNA in the absence of chemical substance (yeast gene YGR224W): 0.8 | The level of expressed mRNA in the presence of chemical substance/The level of expressed mRNA in the absence of chemical substance (yeast gene YHL040C): 7.3 | The level of expressed mRNA in the presence of chemical substance/The level of expressed mRNA in the absence of chemical substance (yeast gene YHL047C): 8.4 | The level of expressed mRNA in the presence of chemical substance/The level of expressed mRNA in the absence of chemical substance (yeast gene YHR008C): 1.0 | The level of expressed mRNA in the presence of chemical substance/The level of expressed mRNA in the absence of chemical substance (yeast gene YHR048W): 0.8 | The level of expressed mRNA in the presence of chemical substance/The level of expressed mRNA in the absence of chemical substance (yeast gene YHR053C): 1.3 | The level of expressed mRNA in the presence of chemical substance/The level of expressed mRNA in the absence of chemical substance (yeast gene YHR055C): 1.6 | The level of expressed mRNA in the presence of chemical substance/The level of expressed mRNA in the absence of chemical substance (yeast gene YIR002C): 2.2 | The level of expressed mRNA in the presence of chemical substance/The level of expressed mRNA in the absence of chemical substance (yeast gene YIR038C): 2.5 | The level of expressed mRNA in the presence of chemical substance/The level of expressed mRNA in the absence of chemical substance (yeast gene YJL101C): 1.0 | The level of expressed mRNA in the presence of chemical substance/The level of expressed mRNA in the absence of chemical substance (yeast gene YJR104C): 1.4 | The level of expressed mRNA in the presence of chemical substance/The level of expressed mRNA in the absence of chemical substance (yeast gene YKL026C): 1.8 | The level of expressed mRNA in the presence of chemical substance/The level of expressed mRNA in the absence of chemical substance (yeast gene YKL064W): 1.5 | The level of expressed mRNA in the presence of chemical substance/The level of expressed mRNA in the absence of chemical substance (yeast gene YKR066C): 0.9 | The level of expressed mRNA in the presence of chemical substance/The level of expressed mRNA in the absence of chemical substance (yeast gene YKR105C): 1.2 | The level of expressed mRNA in the presence of chemical substance/The level of expressed mRNA in the absence of chemical substance (yeast gene YKR106W): 1.6 | The level of expressed mRNA in the presence of chemical substance/The level of expressed mRNA in the absence of chemical substance (yeast gene YLL028W): 1.7 | The level of expressed mRNA in the presence of chemical substance/The level of expressed mRNA in the absence of chemical substance (yeast gene YLL057C): 1.0 | The level of expressed mRNA in the presence of chemical substance/The level of expressed mRNA in the absence of chemical substance (yeast gene YLL060C): 1.4 | The level of expressed mRNA in the presence of chemical substance/The level of expressed mRNA in the absence of chemical substance (yeast gene YLR043C): 1.4 | The level of expressed mRNA in the presence of chemical substance/The level of expressed mRNA in the absence of chemical substance (yeast gene YLR046C): 3.8 | The level of expressed mRNA in the presence of chemical substance/The level of expressed mRNA in the absence of chemical substance (yeast gene YML028W): 1.2 | The level of expressed mRNA in the presence of chemical substance/The level of expressed mRNA in the absence of chemical substance (yeast gene YML116W): 0.9 | The level of expressed mRNA in the presence of chemical substance/The level of expressed mRNA in the absence of chemical substance (yeast gene YMR015C): 1.3 | The level of expressed mRNA in the presence of chemical substance/The level of expressed mRNA in the absence of chemical substance (yeast gene YMR038C): 1.0 | The level of expressed mRNA in the presence of chemical substance/The level of expressed mRNA in the absence of chemical substance (yeast gene YNL239W): 1.8 | The level of expressed mRNA in the presence of chemical substance/The level of expressed mRNA in the absence of chemical substance (yeast gene YNL241C): 0.9 | The level of expressed mRNA in the presence of chemical substance/The level of expressed mRNA in the absence of chemical substance (yeast gene YNL259C): 3.9 | The level of expressed mRNA in the presence of chemical substance/The level of expressed mRNA in the absence of chemical substance (yeast gene YOL158C): 2.0 | The level of expressed mRNA in the presence of chemical substance/The level of expressed mRNA in the absence of chemical substance (yeast gene YOR031W): 0.9 | The level of expressed mRNA in the presence of chemical substance/The level of expressed mRNA in the absence of chemical substance (yeast gene YOR153W): 7.4 | The level of expressed mRNA in the presence of chemical substance/The level of expressed mRNA in the absence of chemical substance (yeast gene YOR247W): 0.2 | The level of expressed mRNA in the presence of chemical substance/The level of expressed mRNA in the absence of chemical substance (yeast gene YOR251C): 0.9 | The level of expressed mRNA in the presence of chemical substance/The level of expressed mRNA in the absence of chemical substance (yeast gene YOR273C): 0.4 | The level of expressed mRNA in the presence of chemical substance/The level of expressed mRNA in the absence of chemical substance (yeast gene YPL163C): 0.6 | The level of expressed mRNA in the presence of chemical substance/The level of expressed mRNA in the absence of chemical substance (yeast gene YPR200C): 0.8
